Where two headings read alike, the source gives them in different places.
Columns and labels:
[1] = target: PSV with methionine 184 to valine (M184V) substitution in the reverse transcriptase gene; test: microbe, parasite or virus in culture; format: cell-based, HIV; conditions: read-out: M184V IC50
[2] = tested on: wild-type NL4-3 replication defective pseudovirus (PSV); test: microbe, parasite or virus in culture; format: cell-based; conditions: NL43, 72 h, U373 cells expressing human CD4 and CXCR4 or CCR5, luciferase signal after 3 days, mean IC50, read-out: WT IC50
[3] = Human immunodeficiency virus 1, 72 h

SMILES | IC50 ([1]; U373 cells expressing human CD4 and CXCR4 or CCR5, luciferase signal after 3 days, mean IC50) | IC50 [2] | IC50 [1, 3]
C#C[C@]1(CO)O[C@@H](n2cnc3c(N)nc(F)nc32)C[C@@H]1O [EFdA, 4′-ethynyl-2-fluoro-2′-deoxyadenosine, reference compound] | 35.1 nM | 6.5 nM | 
C#C[C@]1(CO)O[C@@H](n2cnc3c(N)nc(F)nc32)C[C@@H]1OC(C)=O [Example 1, (2R,3S,5R)-5-(6-amino-2-fluoro-9H-purin-9-yl)-2-ethynyl-2-(hydroxymethyl)tetrahydrofuran-3-yl acetate] |  | 106 nM | 538 nM
C#C[C@]1(CO)O[C@@H](n2cnc3c(N)nc(F)nc32)C[C@@H]1OC(=O)CCCCCCCCCCCCC [Example 2, (2R,3S,5R)-5-(6-amino-2-fluoro-9H-purin-9-yl)-2-ethynyl-2-(hydroxymethyl)tetrahydrofuran-3-yl tetradecanoate] |  | 1.5 nM | 7.8 nM
C#C[C@]1(CO)O[C@@H](n2cnc3c(N)nc(F)nc32)C[C@@H]1OC(=O)CCCCCCCCC [Example 3, (2R,3S,5R)-5-(6-amino-2-fluoro-9H-purin-9-yl)-2-ethynyl-2-(hydroxymethyl)tetrahydrofuran-3-yl decanoate] |  | 1.3 nM | 7 nM
C#C[C@]1(CO)O[C@@H](n2cnc3c(N)nc(F)nc32)C[C@@H]1OC(=O)CCCCCC [Example 4, (2R,3S,5R)-5-(6-amino-2-fluoro-9H-purin-9-yl)-2-ethynyl-2-(hydroxymethyl)tetrahydrofuran-3-yl heptanoate] |  | 4.1 nM | 24 nM
C#C[C@]1(CO)O[C@@H](n2cnc3c(N)nc(F)nc32)C[C@@H]1OC(=O)C(CCC)CCC [Example 5, (2R,3S,5R)-5-(6-amino-2-fluoro-9H-purin-9-yl)-2-ethynyl-2-(hydroxymethyl)tetrahydrofuran-3-yl 2-propylpentanoate] |  | 35.5 nM | 168 nM
C#C[C@]1(CO)O[C@@H](n2cnc3c(N)nc(F)nc32)C[C@@H]1OC(=O)CCCCCCCCCCCCCCCCCCC [Example 6, (2R,3S,5R)-5-(6-amino-2-fluoro-9H-purin-9-yl)-2-ethynyl-2-(hydroxymethyl)tetrahydrofuran-3-yl icosanoate] |  | 635 nM | 3280 nM
C#C[C@]1(CO)O[C@@H](n2cnc3c(N)nc(F)nc32)C[C@@H]1OC(=O)CCCCCCC/C=C\C/C=C\C/C=C\CC [Example 7, (9Z,12Z,15Z)-(2R,3S,5R)-5-(6-amino-2-fluoro-9H-purin-9-yl)-2-ethynyl-2-(hydroxymethyl)tetrahydrofuran-3-yl octadeca-9,12,15-trienoate] |  | 7.1 nM | 36.4 nM
C#C[C@]1(CO)O[C@@H](n2cnc3c(NC(=O)OCC)nc(F)nc32)C[C@@H]1OC(=O)CCCCCCCCC [Example 8, (2R,3S,5R)-5-(6-((ethoxycarbonyl)amino)-2-fluoro-9H-purin-9-yl)-2-ethynyl-2-(hydroxymethyl)tetrahydrofuran-3-yl decanoate] |  | 165 nM | 460 nM
C#C[C@]1(COC(=O)OCC)O[C@@H](n2cnc3c(N)nc(F)nc32)C[C@@H]1OC(=O)CCCCCCCCC [Example 9, (2R,3S,5R)-5-(6-amino-2-fluoro-9H-purin-9-yl)-2-(((ethoxycarbonyl)oxy)methyl)-2-ethynyltetrahydrofuran-3-yl decanoate] |  | 11.4 nM | 53 nM
C#C[C@]1(CO)O[C@@H](n2cnc3c(N)nc(F)nc32)C[C@@H]1OC(=O)Cc1ccccc1 [Example 10, (2R,3S,5R)-5-(6-amino-2-fluoro-9H-purin-9-yl)-2-ethynyl-2-(hydroxymethyl)tetrahydrofuran-3-yl 2-phenylacetate] |  | 7.2 nM | 26.2 nM
C#C[C@]1(CO)O[C@@H](n2cnc3c(N)nc(F)nc32)C[C@@H]1OC(=O)C(C)CCCCC (stereo partly drawn) [Example 11, (2R,3S,5R)-5-(6-amino-2-fluoro-9H-purin-9-yl)-2-ethynyl-2-(hydroxymethyl)tetrahydrofuran-3-yl 2-methylheptanoate] |  | 2.9 nM | 17 nM
C#C[C@]1(CO)O[C@@H](n2cnc3c(N)nc(F)nc32)C[C@@H]1OC(=O)[C@H]1CC[C@H](CCCCC)CC1 [Example 12, (2R,3S,5R)-5-(6-amino-2-fluoro-9H-purin-9-yl)-2-ethynyl-2-(hydroxymethyl)tetrahydrofuran-3-yl (1s,4S)-4-pentylcyclohexane-1-carboxylate] |  | 1.8 nM | 10.7 nM
C#C[C@]1(CO)O[C@@H](n2cnc3c(N)nc(F)nc32)C[C@@H]1OC(=O)C(C)(C)C [Example 13, (2R,3S,5R)-5-(6-amino-2-fluoro-9H-purin-9-yl)-2-ethynyl-2-(hydroxymethyl)tetrahydrofuran-3-yl pivalate] |  | 262 nM | 1280 nM
C#C[C@]1(CO)O[C@@H](n2cnc3c(NC(=O)CCCCCCCCCCCCC)nc(F)nc32)C[C@@H]1OC(C)=O [Example 14, (2R,3S,5R)-2-ethynyl-5-(2-fluoro-6-tetradecanamido-9H-purin-9-yl)-2-(hydroxymethyl)tetrahydrofuran-3-yl acetate] |  | 11.4 nM | 68 nM
C#C[C@]1(CO)O[C@@H](n2cnc3c(N)nc(F)nc32)C[C@@H]1OC(=O)C(CCCCCC)CCCCCCCC (stereo partly drawn) [Example 15, (2R,3S,5R)-5-(6-amino-2-fluoro-9H-purin-9-yl)-2-ethynyl-2-(hydroxymethyl)tetrahydrofuran-3-yl 2-hexyldecanoate] |  | 555 nM | 3120 nM
C#C[C@]1(CO)O[C@@H](n2cnc3c(N)nc(F)nc32)C[C@@H]1OC(=O)C1CCCCC1 [Example 16, (2R,3S,5R)-5-(6-amino-2-fluoro-9H-purin-9-yl)-2-ethynyl-2-(hydroxymethyl)tetrahydrofuran-3-yl cyclohexanecarboxylate] |  | 3.9 nM | 19 nM
C#C[C@]1(CO)O[C@@H](n2cnc3c(N)nc(F)nc32)C[C@@H]1OC(=O)C(CCCC)CCCCCC (stereo partly drawn) [Example 17, (2R,3S,5R)-5-(6-amino-2-fluoro-9H-purin-9-yl)-2-ethynyl-2-(hydroxymethyl)tetrahydrofuran-3-yl 2-butyloctanoate] |  | 145 nM | 598 nM
C#C[C@]1(CO)O[C@@H](n2cnc3c(N)nc(F)nc32)C[C@@H]1OC(=O)C(C)(C)CCC [Example 18, (2R,3S,5R)-5-(6-amino-2-fluoro-9H-purin-9-yl)-2-ethynyl-2-(hydroxymethyl)tetrahydrofuran-3-yl 2,2-dimethylpentanoate] |  | 46.4 nM | 168 nM
C#C[C@]1(CO)O[C@@H](n2cnc3c(N)nc(F)nc32)C[C@@H]1OC(=O)c1ccccc1 [Example 19, (2R,3S,5R)-5-(6-amino-2-fluoro-9H-purin-9-yl)-2-ethynyl-2-(hydroxymethyl)tetrahydrofuran-3-yl benzoate] |  | 40.8 nM | 197 nM
C#C[C@]1(CO)O[C@@H](n2cnc3c(N)nc(F)nc32)C[C@@H]1OC(=O)CCC [Example 20, (2R,3S,5R)-5-(6-amino-2-fluoro-9H-purin-9-yl)-2-ethynyl-2-(hydroxymethyl)tetrahydrofuran-3-yl butyrate] |  | 27.7 nM | 124 nM
C#C[C@]1(CO)O[C@@H](n2cnc3c(N)nc(F)nc32)C[C@@H]1OC(=O)[C@H]1CC[C@H](C(C)(C)C)CC1 [Example 22, (2R,3S,5R)-5-(6-amino-2-fluoro-9H-purin-9-yl)-2-ethynyl-2-(hydroxymethyl)tetrahydrofuran-3-yl (1r,4S)-4-(tert-butyl)cyclohexane-1-carboxylate] |  | 2.6 nM | 9.3 nM
C#C[C@]1(COC(=O)OCCCCCC)O[C@@H](n2cnc3c(N)nc(F)nc32)C[C@@H]1OC(=O)CCCCCCCCCCCCC [Example 23, (2R,3S,5R)-5-(6-amino-2-fluoro-9H-purin-9-yl)-2-ethynyl-2-((((hexyloxy)carbonyl)oxy)methyl)tetrahydrofuran-3-yl tetradecanoate] |  | 1090 nM | 1130 nM
C#C[C@]1(COC(=O)OCC)O[C@@H](n2cnc3c(N)nc(F)nc32)C[C@@H]1OC(=O)CCCCCCCCCCCCCCCCC [Example 24, (2R,3S,5R)-5-(6-amino-2-fluoro-9H-purin-9-yl)-2-(((ethoxycarbonyl)oxy)methyl)-2-ethynyltetrahydrofuran-3-yl stearate] |  | 1270 nM | 2120 nM
C#C[C@]1(CO)O[C@@H](n2cnc3c(NC(=O)CCCCCC)nc(F)nc32)C[C@@H]1OC(=O)CCCCCC [Example 25, (2R,3S,5R)-2-ethynyl-5-(2-fluoro-6-heptanamido-9H-purin-9-yl)-2-(hydroxymethyl)tetrahydrofuran-3-yl heptanoate] |  | 9.4 nM | 43.9 nM
C#C[C@]1(CO)O[C@@H](n2cnc3c(NC(=O)CCC)nc(F)nc32)C[C@@H]1OC(=O)CCC [Example 26, (2R,3S,5R)-5-(6-butyramido-2-fluoro-9H-purin-9-yl)-2-ethynyl-2-(hydroxymethyl)tetrahydrofuran-3-yl butyrate] |  | 102 nM | 465 nM
C#C[C@]1(CO)O[C@@H](n2cnc3c(NC(=O)CCCCCCCCC)nc(F)nc32)C[C@@H]1OC(=O)CCCCCCCCC [Example 27, (2R,3S,5R)-5-(6-decanamido-2-fluoro-9H-purin-9-yl)-2-ethynyl-2-(hydroxymethyl)tetrahydrofuran-3-yl decanoate] |  | 6.8 nM | 28.6 nM
C#C[C@]1(CO)O[C@@H](n2cnc3c(NC(=O)CCCCCCCCCCCCC)nc(F)nc32)C[C@@H]1OC(=O)CC(C)(C)c1c(C)cc(C)cc1OC(C)=O [Example 28, (2R,3S,5R)-2-ethynyl-5-(2-fluoro-6-tetradecanamido-9H-purin-9-yl)-2-(hydroxymethyl)tetrahydrofuran-3-yl 3-(2-acetoxy-4,6-dimethylphenyl)-3-methylbutanoate] |  | 41.5 nM | 153 nM

Reference: patent publication US20220117993A1, “Compounds Useful in HIV Therapy” (GlaxoSmithKline Intellectual Property (No. 2) Limited, priority 2018, published 2022)
